Data published in US20140243281A1, “BILE ACID RECYCLING INHIBITORS FOR TREATMENT OF PEDIATRIC CHOLESTATIC LIVER DISEASES” (Lumena Pharmaceuticals, Inc., priority 2011, published 2014).
Where two headings read alike, the source gives them in different places. Marks after values point to notes of the source that are not given here.

Assays:
[1] = system: treated subjects aged 10-17; assay: Pediatric multiple-dose study, tolerability; assay type: in vivo, human; conditions: 2 weeks daily up to 5 mg q.d.; 39 treated subjects aged 10-17
Source text: (39 treated subjects aged 10-17).

[2] = Pharmacokinetics (systemic exposure) of LUM001 in pediatric subjects; assay type: in vivo, human; conditions: for concentration at 8 day: human, serum, read-out: Average serum drug exposure
Experimental: (§1) LUM001 has been administered to forty patients under the age of 18 years old. […] The drug was administered once-a-day (QD) in the morning for fourteen days. […] These doses are similar to those using to treat children with cholestatic diseases.

Male beagle dogs [3] = assay: Time to onset of activity on postprandial serum total bile acids in beagle dogs; assay type: in vivo; conditions: dog
Experimental: (§2) Test compound: LUM001-Form I
(§3) LUM001 was dissolved in water at concentrations that required the administration of 0.2 ml/kg of solution. Solutions were placed into gelatin capsules, Torpac Inc., size 13 Batch 594, East Hanover N.J., and administered orally.
(§4) Male beagle dogs were obtained from Covance Research Products, Cumberland Va. or Marshall Farms USA, Inc., North Rose N.Y. A total of 20 dogs, 1 to 5 years old, 6.8 to 15.6 kg body weight, were used in these experiments. The dogs were conditioned to a 12 hour light/dark cycle and maintained on a feeding restriction of 1 hour per day access to food (Richman Standard Certified Canine Diet #5007, PMI Nutrition, Inc., St Louis Mo.) from 7 to 8 AM. They were trained to eat a special meal promptly within 20 minutes when presented (1 can. 397 g, Evanger's 100% Beef for Dogs, Evanger's Dog and Cat Food Co., Inc., Wheeling Ill., mixed with 50 g of sharp cheddar cheese.).
(§5) SBA was measured by an enzymatic assay. SBA values are expressed as μg of total bile acids/ml of serum.
To estimate the details of this plateau, 6 dogs were given a test meal and blood samples for SBA measurement were collected at −30, 0, 30, 60, 65, 70, 80, 90, 120, 180, 240, 360, 480, 720, 1410 and 1440 minutes from the time of feeding. Any remaining food was removed 20 min after it was first presented to the dogs. […]

[4] = system: children and adolescents under the age of eighteen; assay: Fasting serum bile acid and morning post-prandial peak in pediatric subjects; assay type: in vivo, human; conditions: QD in the morning
Experimental: as §1
The efficacy of LUM001 was determined by measuring total serum bile acids after eight days of dosing in children and adolescents under the age of eighteen. Thirty minutes before the next drug administration, at approximately 8 am in the morning, serum bile acid levels were measured. The child had refrained from food for 12 hours prior to this sample thus providing a fasted level of serum bile acid. After breakfast, serum bile acids were measured for up to the next 4 hours (8 am to noon) and the peak serum bile acid concentration noted.

Male beagle dogs [5] = assay: Duration of action on dog serum bile acids, Method 1: two meals for extended SBA elevation; assay type: in vivo; conditions: for Serum Bile Acid, Mean: full meal at 0 hr, dosed at 1 hr, half meal at 4 hr
Experimental: as §2, §3, §4, §5
To estimate the details of this plateau, 6 dogs were given a test meal and blood samples for SBA measurement were collected at −30, 0, 30, 60, 65, 70, 80, 90, 120, 180, 240, 360, 480, 720, 1410 and 1440 minutes from the time of feeding. Any remaining food was removed 20 min after it was first presented to the dogs. To establish a method for extending the elevated plateau of SBA, 6 dogs were given the meal at 0 hr and an additional ½ size meal again 4 hr after their first meal. Blood samples were taken at 0, 1, 2, 3, 4, 4.5, 6, 7 and 8 hr. The curves for SBA level vs time obtained in these experiments were used as references for determining blood sampling times in experiments with LUM001. Wherever possible, experimental design permitting, in experiments with test compound, each dog served as its own simultaneous control, and the mean 1 hr SBA value served as the reference to which all other mean values were compared.
In dogs a single experimental meal produces a postprandial rise in SBA that is elevated to a peak at 1 hour after feeding and constant for an additional 3 hours. Previous experiments (2) indicate that LUM001 remains active for more than 4.5 hours. To measure the duration of action of an ASBT inhibitor using postprandial SBA levels requires that in the control situation the SBA levels remain elevated and constant for the entire period of compound action, or that the compound be administered long before the postprandial rise occurs, and remain active in the empty digestive system for long periods before feeding. Accordingly, two alternative methods were used to provide a window of constant SBA elevation that could be used to measure the duration of action of ASBT inhibitors.
[…] At 4 hours after the meal was offered, a second meal of ½ the size of the first meal was offered. It too was consumed as promptly and thoroughly as the first meal, and provided an extended, constant SBA plateau. Blood samples for SBA measurement were taken at 0, 1, 1.5, 2, 4, 4.5, 5, 5.5, 6, 6.5, 7, 7.5 and 8 hours from the time of offering the first meal. Mean SBA levels were compared to the mean SBA level at 1 hour, each dog serving as its own control.
All animals were fed a full meal at 0 hour, dosed orally with the compound at 1 hour and then fed an additional one-half meal at 4 hours. *=p<0.05 compared to the mean value in the same curve at 1 hour by two-tailed paired two-sample t-test.

healthy, adult subjects = assay: Phase 1 ascending multiple oral doses in healthy subjects: serum and fecal bile acid analysis; assay type: in vivo, human; conditions: 28 days
Experimental: This Phase 1 study was a randomized, double-blind, placebo-controlled study of ascending multiple oral doses of LUM001 in healthy, adult subjects. This study was conducted at a single center. There were 13 LUM001 dosing panels: 10, 20, 60, 100, and 20 mg every morning (qAM) (2) (i.e., the regimen was tested a second time in the study), 5 mg every evening (qPM), 0.5, 1, 2.5, 5, 2.5 (2), 5 (2), and 0.5 to 5 mg qAM dose titration. Most of the dosing panels included subjects treated with matching placebo. Shown in the graphs are data from the 0.5 (n=16), 1.0 (n=8), 2.5 (n=8), 5.0 (n=8) and 10 (n=8) mg dosing groups. […]
SBA were analyzed as part of the routine clinical analysis of the serum samples collected at each time point.
Fecal samples were collected for all panels except the dose-titration panel, 2.5 (2) and 5 mg (2), on Days 9 through 14 and 23 through 28 (data shown in FIG. 4). Twenty-four hour FBA excretions were quantified by Pharmacia for Days 9 through 14 and 23 through 28. […] The weight of each 24-hour fecal collection was recorded on the CRFs. […]
An aliquot for each 24-hour fecal sample collected on Days 23 through 28 was combined, homogenized, and analyzed for bile acid species concentrations by ANAPHARM. The fecal bile acid species evaluated include chenodeoxycholic acid, cholic acid, deoxycholic acid, and lithocholic acid.

Male ZDF rats = assay: Plasma bile acid levels of ZDF rats after ascending doses of SC-435 and LUM002; assay type: in vivo, rat; conditions: ZDF rats n=4; all doses (SC-435 1, 10, 30 mg/kg; LUM002 0.3, 1, 3, 10, 30 mg/kg) oral gavage twice a day, 2 weeks
Experimental: FIG. 2. Plasma bile acid levels of ZDF rats after administration of ascending doses of SC-435 and LUM002. Male ZDF rats (n=4) were administered vehicle, SC-435 (1, 10 or 30 mg/kg) or LUM002 (0.3, 1, 3, 10 or 30 mg/kg) by oral gavage twice a day for 2 weeks. Plasma bile acid levels were determined at the end of the second week. Data are expressed as mean values±SEM.
Male ZDF rats (n=4) were administered vehicle, SC-435 (1, 10 or 30 mg/kg) or LUM002 (0.3, 1, 3, 10 or 30 mg/kg) by oral gavage twice a day for 2 weeks. Plasma bile acid levels were determined at the end of the second week. […] Data are expressed as mean values±SEM.

[6] = system: Male Zucker diabetic fatty rats (ZDF/GmiCrl-fa/fa); assay: Fecal bile acid excretion and plasma bile acid concentrations in ZDF rats given 264W94; assay type: in vivo, rat; conditions: 2 weeks
Experimental: Male Zucker diabetic fatty rats (ZDF/GmiCrl-fa/fa) were purchased from Charles River (Raleigh, N.C.) and housed under controlled conditions (12:12 light-dark cycle, 24° C. and 50% relative humidity) with free access to rodent food (Purina 5008, Harlan Teklad, Indianapolis, Ind.). All rats arrived at seven weeks of age (±3 days). After a one-week acclimation period, rats were anesthetized with isoflurane (Abbott Laboratories, IL) and tail-vein blood samples were collected at 9 am without fasting. Blood glucose levels were measured using a glucometer (Bayer, Leverkusen, Germany). In order to ensure balanced treatment groups, ZDF rats were assigned to six treatment groups based upon baseline glucose: vehicle (0.5% HPMC, 0.1% Tween80) and five doses of 264W94 (0.001, 0.01, 0.1, 1, 10 mg/kg). All treatments were given via oral gavage twice a day and animals were followed for two weeks with blood samples collected from tail vein at the end of each week at 9 am without fasting. Fecal samples were collected for 24 hours during the second week of treatment.
Non-esterified fatty acids (NEFA), bile acids, and bile acids in fecal extraction were measured using the Olympus AU640 clinical chemistry analyzer (Beckman Coulter, Irving, Tex.).

For `CCCCC1(CCCC)CS(=O)(=O)c2ccc(N(C)C)cc2[C@@H](c2ccc(OCc3ccc(C[N+]45CCN(CC4)CC5)cc3)cc2)[C@H]1O` [LUM001], the Tolerability [1] was “well-tolerated”, the “Systemic absorption (levels of systemic exposure measured on day eight)” value ([2]; children, once-a-day in the morning for fourteen days) was “minimally absorbed” and the concentration at 8 day ([2]; Subject 0308, 1.0 mg, 28.9 μg/kg QD) was 0 ng/mL. For the same compound, the concentration at 8 day ([2]; Subject 0410, 2.5 mg, 42.0 μg/kg QD) was 0 ng/mL, the concentration at 8 day ([2]; Subject 0510, 5.0 mg, 168.4 μg/kg QD) was 0 ng/mL and the “Time after dosing to significantly lowered SBA levels” value (Male beagle dogs [3]; 0.05 mg/kg oral) was 1 to 2 h. The “Serum Bile Acid, Mean” value (Male beagle dogs [3]; 1 mg/kg p.o., 0 min from feeding, fed at 0 min, dosed at 60 min) was 2.8 µg/mL, the “Decrease of fasting serum bile acid level versus placebo patients” value [4] was 24% and the “Decrease of post-prandial peak serum bile acid level versus placebo patients” value [4] was 23%. The “Serum Bile Acid, Mean” value (Male beagle dogs [5]; 0 hr) was 1.4 µg/mL, the “Serum Bile Acid, Mean” value (Male beagle dogs [5]; 1 hr) was 9.2 µg/mL and the “Serum Bile Acid, Mean” value (Male beagle dogs [5]; 1.5 hr) was 9.6 µg/mL. The “Serum Bile Acid, Mean” value (Male beagle dogs [5]; 2 hr) was 6.7 µg/mL, the “Serum Bile Acid, Mean” value (Male beagle dogs [5]; 4 hr) was 5.1* μg/ml and the “Serum Bile Acid, Mean” value (Male beagle dogs [5]; 4.5 hr) was 6.4 µg/mL. The “Serum Bile Acid, Mean” value (Male beagle dogs [5]; 5 hr) was 7.0 µg/mL, the “Serum Bile Acid, Mean” value (Male beagle dogs [5]; 6 hr) was 7.0 µg/mL and the “Serum Bile Acid, Mean” value (Male beagle dogs [5]; 7 hr) was 7.4 µg/mL. For the same compound, the “Serum Bile Acid, Mean” value (Male beagle dogs [5]; 8 hr) was 6.5 µg/mL, the “Time LUM001 remains active” value (Male beagle dogs [5]; previous experiments) was “more than 4.5 hours” and the Fecal bile acids (healthy, adult subjects) was “significant increase”. The Serum bile acids (healthy, adult subjects) was “significant reduction”.

With `CCCC[C@]1(CC)CS(=O)(=O)c2ccc(N(C)C)cc2[C@@H](c2cccc(NC(=O)N[C@@H]3O[C@H](COS(=O)(=O)[O-])[C@@H](O)[C@H](OCc4ccccc4)[C@H]3O)c2)[C@H]1O.[K+]` [LUM002] the “Plasma bile acid levels” value (Male ZDF rats) was “decreased”.

In the case of `CCCC[C@]1(CC)CS(=O)(=O)c2cc(OC)c(OC)cc2[C@@H](c2ccccc2)N1` [Compound 264W94], the “Fecal bile acid concentrations elevated compared to vehicle treated rats” value ([6]; 0.001-10 mg/kg oral gavage twice a day, 24 h feces in second week) is reported as “up to 6.5 fold”, the “ED50 for elevation of fecal bile acid concentrations” value ([6]; oral gavage twice a day) is reported as 0.17 mg/kg and the “Fecal NEFA” value ([6]; oral gavage twice a day) is reported as “slightly increased”. The “Plasma bile acid concentrations” value ([6]; oral gavage twice a day) was “decreased dose-dependently”.

For `CCCCC1(CCCC)CS(=O)(=O)c2ccc(N(C)C)cc2[C@@H](c2ccc(OCCCC[N+]34CCN(CC3)CC4)cc2)[C@H]1O.CS(=O)(=O)[O-]` [SC-435, 1-[4-[4-[(4R,5R)-3,3-dibutyl-7-(dimethylamino)-2,3,4,5-tetrahydro-4-hydroxy-1,1-dioxido-1-benzothiepin-5-yl]phenoxy]butyl]-4-aza-1-azoniabicyclo[2.2.2]octane methanesulfonate salt, reference compound], the “Plasma bile acid levels” value (Male ZDF rats) was “decreased”.
